Measurements reported in US5225607A, “Insecticidal ethers” (Imperial Chemical Industries PLC, priority 1985, dated 1993).

Experiments:
Assay type in all cases: in vivo
Tetranychus urticae = assay: Insecticidal/acaricidal test, Tetranychus urticae (spider mites - adult), contact; conditions: 72 h, French bean leaf, 3 days, read-out: grading of mortality, TU
Outline: (§1)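 Acetone solution diluted in water + 0.01% wetting agent; 500/250/100 ppm. Treat pests and/or host plant/food medium. Read mortality/knockdown day 1–3. Grades: A 80–100% (S. exigua 70–100%), B 50–79% (50–69%), C <50%.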

Myzus persicae = assay: Insecticidal test, Myzus persicae (aphids), contact; conditions: 72 h, Chinese Cabbage leaf, 3 days, read-out: grading of mortality, MP
Outline: as §1

Nilaparvata lugens = assay: Insecticidal test, Nilaparvata lugens (brown planthopper), contact; conditions: 72 h, Cabbage leaf, 3 days, read-out: grading of mortality, NL
Outline: as §1

Musca domestica [1] = assay: Knockdown test, Musca domestica (houseflies - adults); conditions: cotton wool/sugar, 4 hours, read-out: grading of knockdown, MD/KD
Outline: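 Knockdown scores were banded: A 80–100%, B 50–79%, C <50%. Test preparations of 500, 250 or 100 ppm compound were made in acetone, then diluted with water containing 0.01% Lissapol NX, and applied to Musca domestica adults.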

Musca domestica [2] = assay: Insecticidal test, Musca domestica (houseflies - adults), contact; conditions: 24 h, cotton wool/sugar, 1 day, read-out: grading of mortality, MD
Outline: as §1

Blattella germanica = assay: Insecticidal test, Blattella germanica (cockroach nymphs), residual; conditions: 72 h, plastic pot, 3 days, read-out: grading of mortality, BG
Outline: as §1

Heliothis virescens = assay: whole plant or invertebrate; conditions: in Gossypium hirsutum, 72 h, read-out: grading of mortality, HV
Outline: as §1

Diabrotica balteata = assay: Insecticidal test, Diabrotica balteata (rootworm larvae), residual; conditions: 72 h, filter paper/maize seed, 3 days, read-out: grading of mortality, DB
Outline: as §1

Row | SMILES | mortality at 250 ppm (Tetranychus urticae) [%] | mortality at 250 ppm (Myzus persicae) [%] | mortality at 250 ppm (Nilaparvata lugens) [%] | pest or weed control at 250 ppm (Musca domestica [1]) [%] | mortality at 250 ppm (Musca domestica [2]) [%] | mortality at 250 ppm (Blattella germanica) [%] | mortality at 250 ppm (Heliothis virescens) [%] | mortality at 250 ppm (Diabrotica balteata) [%] | mortality at 500 ppm (Tetranychus urticae) [%] | mortality at 500 ppm (Myzus persicae) [%] | mortality at 500 ppm (Nilaparvata lugens) [%] | pest or weed control at 500 ppm (Musca domestica [1]) [%] | mortality at 500 ppm (Musca domestica [2]) [%] | mortality at 500 ppm (Blattella germanica) [%] | mortality at 500 ppm (Heliothis virescens) [%] | mortality at 500 ppm (Diabrotica balteata) [%] | also measured
1 | FC(F)(F)C(COCc1cccc(Oc2ccccc2)c1)c1ccc(Cl)cc1 (stereo not shown) [Compound 16, 1,1,1-Trifluoro-2-(4-chlorophenyl)-3-(3-phenoxybenzyloxy)propane] |  |  |  |  |  |  |  |  |  |  |  |  |  |  |  |  | mortality at 100 ppm (Tetranychus urticae; 100 ppm): < 50%; mortality at 100 ppm (Myzus persicae; 100 ppm): 80 to 100%; mortality at 100 ppm (Nilaparvata lugens; 100 ppm): 80 to 100%; pest or weed control at 100 ppm (Musca domestica [1]; 100 ppm): 80 to 100%; mortality at 100 ppm (Musca domestica [2]; 100 ppm): 80 to 100%; mortality at 100 ppm (Blattella germanica; 100 ppm): 80 to 100%; mortality at 100 ppm (Heliothis virescens): 80 to 100%; mortality at 100 ppm (Diabrotica balteata; 100 ppm): 80 to 100%
2 | CCOc1ccc(C(F)(COCc2cccc(Oc3ccc(Cl)cc3)c2)C(F)(F)F)cc1 (stereo not shown) [Compound 79, 1,1,1,2-Tetrafluoro-2-(4-ethoxyphenyl)-3-(3-(4-chlorophenoxy)benzyloxy)propane] | < 50 | < 50 | 80 to 100 | 80 to 100 | 80 to 100 | 80 to 100 | 80 to 100 | < 50 |  |  |  |  |  |  |  |  | 
3 | CCOc1ccc(C(O)(COCc2cccc(-c3ccccc3)c2C)C(F)(F)F)cc1 (stereo not shown) [Compound 142, 1,1,1-Trifluoro-2-(4-ethoxyphenyl)-3-(2-methyl-3-phenylbenzyloxy)propan-2-ol] |  |  |  |  |  |  |  |  | 80 to 100 | < 50 | < 50 | < 50 | < 50 | < 50 | 80 to 100 | < 50 | 
4 | CCOc1ccc(C(Cl)(COCc2coc(Cc3ccccc3)c2)C(F)(F)F)cc1 (stereo not shown) [Compound 45, 1,1,1-Trifluoro-2-chloro-2-(4-ethoxyphenyl)-3-(5-benzyl-3-furanylmethyloxy)propane] | 50 to 79 | < 50 | < 50 | 80 to 100 | < 50 | < 50 | < 50 | < 50 |  |  |  |  |  |  |  |  | 
5 | CCOc1ccc(C(COCc2cccc(Oc3ccccc3)c2)C(F)(F)F)cc1 (stereo not shown) [Compound 1, 1,1,1-trifluoro-2-(4-ethoxyphenyl)-3-(3-phenoxybenzyloxy)propane] |  |  |  |  |  |  |  |  | 80 to 100 | 80 to 100 | 80 to 100 | 80 to 100 | 80 to 100 | 80 to 100 | 80 to 100 | 80 to 100 | 
6 | CCOc1ccc(C(O)(COCc2cccc(Oc3ccccc3)c2)C(F)(F)F)cc1 (stereo not shown) [Compound 112, 1,1,1-trifluoro-2-(4-ethoxyphenyl)-3-(3-phenoxybenzyloxy)propan-2-ol] | < 50 | < 50 | < 50 | 50 to 79 | < 50 | < 50 | < 50 | 80 to 100 |  |  |  |  |  |  |  |  | 
7 | Fc1ccc(COCC(Cl)(c2ccc3c(c2)CCC3)C(F)(F)F)cc1Oc1ccccc1 (stereo not shown) [Compound 52, 1,1,1,-Trifluoro-2-chloro-2-(5-indanyl)-3-(3-phenoxy-4-fluorobenzyloxy)propane] |  |  |  |  |  |  |  |  | < 50 | < 50 | < 50 | 80 to 100 | 50 to 79 | 80 to 100 | 50 to 79 | < 50 | 
8 | CCOc1ccc(C(COCc2ccc(F)c(Oc3ccccc3)c2)C(F)(F)F)cc1 (stereo not shown) [Compound 33, 1,1,1-Trifluoro-2-(4-ethoxyphenyl)-3-(3-phenoxy-4-fluorobenzyloxy)propane] |  |  |  |  |  |  |  |  | 80 to 100 | 80 to 100 | 80 to 100 | 80 to 100 | 80 to 100 | 80 to 100 | 80 to 100 | 80 to 100 | 
9 | CCOc1ccc(C(F)(COCc2cccc(-c3ccccc3)c2C)C(F)(F)F)cc1 (stereo not shown) [Compound 80, 1,1,1,2-Tetrafluoro-2-(4-ethoxyphenyl)-3-(2-methyl-3-phenylbenzyloxy)propane] |  |  |  |  |  |  |  |  | < 50 | 80 to 100 | 80 to 100 | 80 to 100 | 80 to 100 | 80 to 100 | < 50 | 80 to 100 | 
10 | Fc1ccc(COCC(c2ccc3c(c2)CCC3)C(F)(F)F)cc1Oc1ccccc1 (stereo not shown) [Compound 19, 1,1,1-Trifluoro-2-(5-indanyl)-3-(3-phenoxy-4-fluorobenzyloxy)propane] | < 50 | 80 to 100 | 80 to 100 | 80 to 100 | 80 to 100 | 80 to 100 | 80 to 100 | 80 to 100 |  |  |  |  |  |  |  |  | 
11 | CCCc1ccc(C(Cl)(COCc2ccc(F)c(Oc3ccccc3)c2)C(F)(F)F)cc1 (stereo not shown) [Compound 53, 1,1,1-Trifluoro-2-chloro-2-(4-n-propylphenyl)-3-(3-phenoxy-4-fluorobenzyloxy)propane] |  |  |  |  |  |  |  |  | 80 to 100 | 80 to 100 | 80 to 100 | 80 to 100 | 80 to 100 | 80 to 100 | 80 to 100 | 80 to 100 | 
12 | FC(F)(F)Oc1ccc(C(F)(COCc2cccc(Oc3ccccc3)c2)C(F)(F)F)cc1 (stereo not shown) [Compound 82, 1,1,1,2-Tetrafluoro-2-(4-trifluoromethoxyphenyl)-3-(3-phenoxybenzyloxy)propane] |  |  |  |  |  |  |  |  | < 50 | 80 to 100 | < 50 | 80 to 100 | 80 to 100 | 80 to 100 | 80 to 100 | 80 to 100 | 
13 | CCOc1ccc(C(COCc2cccc(Oc3ccc(Cl)cc3)c2)C(F)(F)F)cc1 (stereo not shown) [Compound 3, 1,1,1-Trifluoro-2-(4-ethoxyphenyl)-3-(3-(4-chlorophenoxy)benzyloxy)propane] | < 50 | 80 to 100 | 80 to 100 | 80 to 100 | 80 to 100 | 80 to 100 | < 50 | 80 to 100 |  |  |  |  |  |  |  |  | 
14 | CCOc1ccc(C(O)(COCc2ccc(F)c(Oc3ccc(Cl)cc3)c2)C(F)(F)F)cc1 (stereo not shown) [Compound 117, 1,1,1-Trifluoro-2-(4-ethoxyphenyl)-3-(3-(4-chlorophenoxy)-4-fluorobenzyloxy)propan-2-ol] |  |  |  |  |  |  |  |  | < 50 | < 50 | < 50 | 80 to 100 | 50 to 79 | < 50 | < 50 | < 50 | 
